Assay results taken from patent US20260263334A1, “COMPOSITIONS CONTAINING NITRATE-RICH FOODS AND EXTRACTS FOR SHIFTING THE ORAL MICROBIOME” (WM. WRIGLEY JR. COMPANY, priority 2023, published 2026).

Tests used:
salivary bacteria = assay: nitrate reductase (NR) activity of human salivary bacteria (Griess reagent); assay type: cell-based
Protocol: Human stimulated saliva was collected from two subjects and tested for NR activity in the presence of nitrate, cysteine and a combination of nitrate and cysteine. The Griess test was used for nitrite production.
Two subjects were evaluated in this study. The subjects refrained from oral hygiene and eating the night before and morning of the test and their stimulated saliva was collected after chewing 1 g of gum base for 5 minutes. The saliva samples were stored immediately on ice, diluted 1:1 with D.I. H2O and used as a bacterial source for nitrate reductase (NR) activity testing under anaerobic condition.
The contents in each reaction mixture contained (mL):
Detection of the end product of NR and nitrite was by the Griess reagent at OD550 nm readings.

[1] = system: Veillonella atypica (ATCC 17744) (V.a.); assay: nitrate reductase (NR) activity of V.a (Griess test); assay type: cell-based; conditions: Cysteine 1%
Protocol: (§1) For evaluation of nitric oxide producing capability of oral bacteria, overnight cultures of test organisms were washed once and transferred into a medium without any nitrate or nitrite compounds. A 0.5% (or 1%) KNO3 was added to the medium, and further incubated anaerobically at 37° C. for 24-48 hours. The concentration of nitrite (due to reduction of nitrate by nitrate reductase) was determined by Griess Test over a desired period of time.
(§2) To examine the effect of natural and chemical antimicrobial agents on NO production, test bacteria were pre-exposed to magnolia bark extract (MBE) (a natural germ-kill compound), peppermint oil, and chlorhexidine (CHX). The activities of nitrate reductase from oral bacteria were assayed by Griess test as described above. No treatment controls were included for each test bacterial species. The production of nitrite was reduced if the test antimicrobial compounds affected the nitrate reductase activity. Dose response curves were prepared.
V. atypica was grown in RCM medium without (NH4)2SO4 (to avoid the NH4 affecting Griess reagent); and without agar (0.05%, to avoid affecting the OD measurement).
The method used was the same as that for A.a., except the V.a cell concentration was adjusted to OD550 nm=0.7 (10^8 CFR/ml) in Reduced Transport buffer. The NR activity was also determined in the same buffer system. […]
(§3) Test bacteria cells were incubated with 1% cysteine in growth medium and 0.3% of a nitrate source. Controls contained no cysteine.

saliva = assay: ex vivo production of H2S by saliva (headspace, gas chromatograph with chemiluminescent sulfur detector); assay type: cell-based, human; conditions: saliva mixed with cysteine
[2] = system: Aggregatibacter actinomycetemcomitans (A.a.); assay: nitrate reductase (NR) activity of A.a. (Griess test); assay type: cell-based; conditions: for NR activity (OD) of A.a in the presence of cysteine: Cysteine 1%, 0.3% nitrate source
Protocol: as §1, §2
A. actinomycetemcomitans (A.a.) was grown anaerobically in THB broth supplemented with 1% yeast extract with 0.001% Hemin, and 0.0001% Vitamin K.
The nitrate source KNO3 (0.1% final) was added to respective growth media for individual test bacteria and incubated for 24-48 hours, then 20 μl of the culture broth was withdrawn and tested for nitrite with Griess reagent.
Test bacteria were grown in respective media anaerobically for 48 hours. Cells were centrifuged and re-suspended in buffer or fresh medium for NR activity testing. […]
as §3

Row | NR activity of salivary bacteria (salivary bacteria; cysteine 0.25% in addition to nitrate (KNO3 3%), saliva of two subjects) | NR activity of A.a ([2]; addition of cysteine (1%)) | SMILES | NR activity of salivary bacteria (nitrite production) (salivary bacteria; KNO3 3%, saliva of two subjects) | reduction of NR activity (salivary bacteria; addition of cysteine, pooled saliva from 4 subjects, OD600 nm=0.7, 1.0 and 1.5) | NR activity (OD) of V.a in the presence of cysteine ([1]; 1st trial, 2 hr) [OD] | NR activity (OD) of V.a in the presence of cysteine ([1]; 1st trial, 3 hr) [OD] | NR activity (OD) of V.a in the presence of cysteine ([1]; 2nd trial, 2 hr) [OD] | NR activity (OD) of V.a in the presence of cysteine ([1]; 2nd trial, 3 hr) [OD] | NR activity (OD) of V.a in the presence of cysteine ([1]; 3rd trial, 2 hr) [OD] | NR activity (OD) of V.a in the presence of cysteine ([1]; 3rd trial, 3 hr) [OD] | H2S generated in the headspace air (saliva) [ppm] | NR activity (OD) of A.a in the presence of cysteine ([2]; 1st trial, 2 hr) [OD] | NR activity (OD) of A.a in the presence of cysteine ([2]; 1st trial, 3 hr) [OD] | NR activity (OD) of A.a in the presence of cysteine ([2]; 2nd trial, 2 hr) [OD] | NR activity (OD) of A.a in the presence of cysteine ([2]; 2nd trial, 3 hr) [OD] | NR activity (OD) of A.a in the presence of cysteine ([2]; 3rd trial, 2 hr) [OD] | NR activity (OD) of A.a in the presence of cysteine ([2]; 3rd trial, 3 hr) [OD]
1 |  |  | O=[N+]([O-])[O-].[K+] [KNO3, potassium nitrate] | induced NR activity |  |  |  |  |  |  |  |  |  |  |  |  |  | 
2 | decrease in NR activity | not significantly affected | N[C@@H](CS)C(=O)O [cysteine, L-cysteine] |  | 23-49% | 0.372 | 0.711 | 0.487 | 0.808 | 1.139 | 1.144 | 20 | 0.207 | 0.672 | 0.994 | 0.928 | 0.832 | 0.919
